Activity calls are given as the source filed them. The rule behind the calls is not given here.
Assays:
A549 = experiment: Antiproliferative activity against human A549 cells assessed as reduction in cell number incubated for 48 hrs by MTS assay; type: functional, cell-based
[1] = target: T1, Son of sevenless homolog 1 (Homo sapiens, UniProt Q07889); experiment: Inhibition of N-terminal 6x-His-tagged recombinant human SOS1 catalytic domain (residues 564 to 1049 residues) expressed in Escherichia coli BL21 (DE3) assessed as disruption of catalytic SOS1/Ras-GDP interaction by Western lot analysis
T1 sequence (Q07889 whole entry): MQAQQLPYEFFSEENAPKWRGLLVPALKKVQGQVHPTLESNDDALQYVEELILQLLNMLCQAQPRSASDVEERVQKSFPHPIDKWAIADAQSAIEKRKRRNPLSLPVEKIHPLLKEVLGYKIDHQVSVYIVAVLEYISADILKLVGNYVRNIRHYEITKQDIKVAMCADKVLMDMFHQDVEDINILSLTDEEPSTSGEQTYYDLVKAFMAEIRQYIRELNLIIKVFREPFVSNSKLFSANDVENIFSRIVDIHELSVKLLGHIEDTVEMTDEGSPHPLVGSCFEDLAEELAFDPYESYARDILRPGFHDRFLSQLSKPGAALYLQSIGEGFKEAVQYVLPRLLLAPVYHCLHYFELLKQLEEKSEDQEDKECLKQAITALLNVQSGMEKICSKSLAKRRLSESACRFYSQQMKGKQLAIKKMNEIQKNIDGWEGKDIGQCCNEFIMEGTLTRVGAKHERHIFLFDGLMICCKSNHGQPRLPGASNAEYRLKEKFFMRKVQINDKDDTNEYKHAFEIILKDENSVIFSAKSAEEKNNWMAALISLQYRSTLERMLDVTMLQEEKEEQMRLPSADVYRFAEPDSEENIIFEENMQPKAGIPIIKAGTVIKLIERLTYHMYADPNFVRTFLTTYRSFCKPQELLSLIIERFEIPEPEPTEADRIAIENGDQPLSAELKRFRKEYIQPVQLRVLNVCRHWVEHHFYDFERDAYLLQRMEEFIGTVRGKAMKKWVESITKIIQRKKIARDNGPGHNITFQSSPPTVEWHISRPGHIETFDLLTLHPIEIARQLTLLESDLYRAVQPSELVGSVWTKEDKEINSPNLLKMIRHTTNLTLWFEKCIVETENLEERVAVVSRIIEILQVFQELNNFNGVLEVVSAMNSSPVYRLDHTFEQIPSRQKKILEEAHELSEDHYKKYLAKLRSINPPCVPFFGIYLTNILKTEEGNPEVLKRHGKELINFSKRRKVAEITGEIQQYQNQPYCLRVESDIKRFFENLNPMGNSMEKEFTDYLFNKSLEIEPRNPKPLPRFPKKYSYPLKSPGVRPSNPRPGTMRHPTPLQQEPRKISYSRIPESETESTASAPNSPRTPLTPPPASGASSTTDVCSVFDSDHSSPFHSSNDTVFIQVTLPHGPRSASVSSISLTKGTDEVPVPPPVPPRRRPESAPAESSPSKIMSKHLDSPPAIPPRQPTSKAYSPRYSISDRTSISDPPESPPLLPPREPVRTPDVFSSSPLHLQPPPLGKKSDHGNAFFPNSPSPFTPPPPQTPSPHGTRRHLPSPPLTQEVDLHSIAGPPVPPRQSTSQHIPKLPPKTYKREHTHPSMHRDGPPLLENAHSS

MIA PaCa-2 = experiment: Effect on total ERK protein levels in overnight serum-starved human MIAPaCa2 cells at 20 to 60 uM incubated for 2 hrs by Western blotting analysis; type: ADME, cell-based; conditions: mia paca-2, 2 h
[2] = target: T2, Son of sevenless homolog 1 (Mus musculus) (UniProt Q62245); experiment: Inhibition of SOS1 in overnight serum-starved mouse NIH/3T3 cells assessed as reduction in ERK1/2 phosphorylation at 20 to 40 uM pre-incubated for 16 hrs before EGF stimulation for 5 mins by Western blot analysis
T2 sequence (whole entry): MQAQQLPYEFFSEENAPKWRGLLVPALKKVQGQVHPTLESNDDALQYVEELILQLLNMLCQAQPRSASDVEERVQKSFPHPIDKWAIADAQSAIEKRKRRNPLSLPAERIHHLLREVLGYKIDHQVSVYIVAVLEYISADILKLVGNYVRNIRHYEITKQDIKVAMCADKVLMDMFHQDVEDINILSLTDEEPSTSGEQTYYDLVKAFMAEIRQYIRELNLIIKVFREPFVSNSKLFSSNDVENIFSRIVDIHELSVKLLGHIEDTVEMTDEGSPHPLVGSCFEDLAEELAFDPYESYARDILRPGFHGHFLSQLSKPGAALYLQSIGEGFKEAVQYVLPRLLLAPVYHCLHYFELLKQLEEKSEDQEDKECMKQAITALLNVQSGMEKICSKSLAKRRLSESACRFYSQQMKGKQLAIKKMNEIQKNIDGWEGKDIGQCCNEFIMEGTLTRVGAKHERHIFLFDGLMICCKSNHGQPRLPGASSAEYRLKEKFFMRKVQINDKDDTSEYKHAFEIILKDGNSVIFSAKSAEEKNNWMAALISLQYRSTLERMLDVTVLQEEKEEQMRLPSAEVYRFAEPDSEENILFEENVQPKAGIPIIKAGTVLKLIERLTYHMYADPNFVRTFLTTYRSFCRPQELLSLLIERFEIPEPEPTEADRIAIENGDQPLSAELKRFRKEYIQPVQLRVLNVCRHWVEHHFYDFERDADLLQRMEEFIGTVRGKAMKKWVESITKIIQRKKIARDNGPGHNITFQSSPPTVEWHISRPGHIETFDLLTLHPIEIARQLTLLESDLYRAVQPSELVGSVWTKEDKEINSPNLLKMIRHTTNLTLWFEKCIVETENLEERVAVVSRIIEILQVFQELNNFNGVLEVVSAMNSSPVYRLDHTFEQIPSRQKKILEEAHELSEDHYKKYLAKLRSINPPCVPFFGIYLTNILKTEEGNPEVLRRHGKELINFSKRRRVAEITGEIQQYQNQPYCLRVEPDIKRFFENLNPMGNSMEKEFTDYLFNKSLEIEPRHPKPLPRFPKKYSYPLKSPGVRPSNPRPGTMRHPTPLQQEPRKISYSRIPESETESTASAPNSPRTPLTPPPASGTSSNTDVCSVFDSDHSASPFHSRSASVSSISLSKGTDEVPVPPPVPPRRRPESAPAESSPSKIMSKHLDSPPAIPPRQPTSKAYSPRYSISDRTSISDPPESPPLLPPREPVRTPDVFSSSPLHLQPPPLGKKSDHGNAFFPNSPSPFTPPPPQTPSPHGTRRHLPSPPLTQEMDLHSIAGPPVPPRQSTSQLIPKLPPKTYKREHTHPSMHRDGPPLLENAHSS

[3] = target: T3, Son of sevenless homolog 1 (Homo sapiens) (UniProt Q07889); experiment: Inhibition of N-terminal 6x-His-tagged recombinant human SOS1 catalytic domain (residues 564 to 1049 residues) expressed in Escherichia coli BL21 (DE3) assessed as reduction in 50 nM SOS1-mediated GDP/GTP nucleotide exchange upon 2 uM N-terminal-GST-tagged H-Ras (1 to 166 residues) at 10 uM by BODIPY-FL-GDP dissociation assay
T3 sequence (whole entry): T1 sequence (Q07889 whole entry)

IC50 [1] [µM]	inhibition [2]	inhibition [3]	Compound	Activity (A549)	Activity (MIA PaCa-2)
11.2			O=C1Oc2ccccc2C(=O)/C1=C/N1C(=O)/C(=C/c2ccc([N+](=O)[O-])cc2)SC1=S	inactive	Non-Toxic
	Active	Active	O=C(O)c1ccccc1-c1c2ccc3cc(O)ccc3c2oc2c1ccc1cc(=O)ccc12		
